In patent US4024121A, “(Pyro)-Glu-His-Trp-D-Ser-Tyr-D-Leu-Leu-Arg-Pro-NHR and intermediates” (priority 1976, dated 1977):

Tests used:
LH-release = LH-release in rats after subcutaneous injection (procedure of Arimura et al.); format: in vivo; details: 50 ng subcutaneously
LH-RH activity [1] = details: literature reports; cited from earlier work
LH-RH activity [2] = test: LH-RH activity compared with the natural hormone

Molecule: CC(C)C[C@H](NC(=O)CNC(=O)[C@H](Cc1ccc(O)cc1)NC(=O)[C@H](CO)NC(=O)[C@H](Cc1c[nH]c2ccccc12)NC(=O)[C@H](Cc1c[nH]cn1)NC(=O)[C@@H]1CCC(=O)N1)C(=O)N[C@@H](CCCNC(=N)N)C(=O)N1CCC[C@H]1C(=O)NCC(N)=O [LH-RH, (pyro)-Glu-His-Trp-Ser-Tyr-Gly-Leu-Arg-Pro-Gly-NH2]
- duration of effect of the injection (LH release) (LH-release): no effects of the injection are observed after one hour
- time at which peak activity (LH release) is reached after injection (LH-release): ~15 min

Molecule: [D-Ala^6 ]-LH-RH
- activity compared with LH-RH (LH-RH activity [1]): more active than LH-RH

Molecule: CC(C)C[C@H](NC(=O)CNC(=O)[C@H](Cc1ccc(O)cc1)NC(=O)[C@@H](CO)NC(=O)[C@H](Cc1c[nH]c2ccccc12)NC(=O)[C@H](Cc1c[nH]cn1)NC(=O)[C@@H]1CCC(=O)N1)C(=O)N[C@@H](CCCNC(=N)N)C(=O)N1CCC[C@H]1C(=O)NCC(N)=O [[D-Ser^4]-LH-RH]
- LH-RH activity relative to the natural hormone (LH-RH activity [2]): less than 5%
